Key:
Format in all cases: cell-based, rat
[1] = test system: Cx-containing gap junctions of RFPEC; test: Lucifer Yellow scratch-loading dye transfer assay (gap junction communication)
Procedure: (§1) Cell Culture. Rat fat pad ECs (RFPEC) at passages 20 to 39 were offspring of cells isolated from rat epididymal fat pad and provided by Dr. Mia Thi of Albert Einstein College of Medicine (Bronx, N.Y.). […] The RFPECs are immortalized, making it possible to use late passages. RFPEC were seeded on 12-14-mm diameter and 0.13-0.17-mm thick glass coverslips at a seeding density of 15,000-20,000 cells/cm^2. Cells were cultured in Dulbecco's Modified Eagle Medium (DMEM, Invitrogen, USA) with 1% penicillin-streptomycin (PS) and 10% fetal bovine serum (FBS, Gibco Life Technologies). Cells were maintained in humidity at 37° C. and 5% CO2. RFPECs reached full confluence in 3 days.
(§2) Cultured RFPECs produce thick and robust GCX in this time period. At 3 days post-seeding the RFPECs' culture medium was supplemented with 1% BSA in place of FBS to stabilize the GCX during preservation and immunolabeling (described below). For enzyme treatment experiments, 25 micro-international units per milliliter (μIU/ml) of heparinase III (Hep III; IBEX, Canada) were added to BSA-containing culture media for 2 hours to degrade HS from the GCX [46]. HepIII was washed out, and the wash-out was followed by a 16-hour incubation of RFPECs in regular BSA-containing media. In self-recovery experiments, RFPEC GCX was left to recover for 24 hours after enzyme degradation. The time frame was chosen in accordance with the 20-hour time period that is required for HS restoration to occur on the surface of ECs. For HS recovery experiments, exogenous HS and/or S1P were applied for 16 hours to accommodate the communication test as an assessment of functional glycocalyx recovery. […] After HS was degraded with HepIII, it was replaced by a 16-hour feeding of RFPECs with 59 μg/ml exogenous porcine mucosal HS (Celsus, Cincinnati, Ohio), based on published serum concentration of HS [43]. In sphingosine-1-phosphate experiments, culture media containing enzyme was substituted for media containing either 10 μM of S1P (Sigma-Aldrich) or a combination of 59 μg/ml of HS and 10 μM of S1P for 16 hours after enzyme degradation.
Dye transfer assay, fluorescence microscopy and image analysis. Gap junction functionality was assessed by loading Lucifer Yellow in RFPECs, using a scratch technique, and observing the extent of Lucifer Yellow transfer from loaded cells to neighboring cells (FIG. 7B). Lucifer Yellow has a molecular weight of 457.3 and can only enter cells via broken membranes or via gap junctions. The scratch loading technique involved pre-incubation of RFPECs (for 1 minute) with calcium- and magnesium-free Hanks' Balanced Salt Solution (HBSS; Life Technology) containing 5 mg/ml Lucifer Yellow dye (Life Technology). A 5-μm diameter tip scribe (Ted Pella, Inc, USA) was then used to carefully create a straight scratch in the RFPEC monolayer and to allow the dye to enter the scratched cells. After the dye was loaded, it spread via open gap junctions to adjacent intact cells, with the extent of Lucifer Yellow spread reaching a plateau by 10 minutes after loading. At that point, excess dye was washed out and RFPECs were imaged at 10× magnification (dry objective) using a Zeiss Observer Z1 fluorescence microscope. From recorded images of dye transfer after scratch loading, ImageJ randomly selected dye spread locations that would be quantified along the scratch. At those random locations, lines perpendicular to the scratch axis were drawn, and the intact fluorescent cells (scratched cells excluded) were counted. […]

Cx43 at RFPEC borders = test: Cx43 expression at EC borders, immunostaining and confocal microscopy
Procedure: as §1, §2
As specified by the manufacturer, the HS antibody reacts with many types of heparan sulfate. The reactivity of the HS antibody is abolished after treatment with Hep III, indicating antibody specificity. For secondary detection of HS, Alexa Flour 488 conjugated goat anti-mouse IgG/IgM (H+L; Life Technologies) secondary antibody was used. RFPECs to be processed for connexin 43 (Cx43) were fixed in 4% paraformaldehyde, permeabilized in 0.2% Triton X-100 (Fisher), and blocked in 5% goat serum combined with 0.2% Triton X-100. Connexin 43 staining was performed overnight at 4° C. with 1:100 mouse monoclonal Cx43 antibody (Millipore). […] Secondary Cx43 detection was done with Alexa Flour 488 conjugated goat anti-mouse IgG. […] These controls confirmed that the staining observed in the RFPECs is not an artefact.
Confocal immunofluorescence microscopy imaging and analysis. Alexa Fluor 488 fluorescent RFPECs were mounted with Vectashield containing DAPI (Vector Labs) and imaged with a Zeiss LSM 700 laser scanning confocal microscope. HS and Cx43 were imaged at 63× magnification (oil objective) and 40× magnification (oil objective), respectively. Lasers with excitation wavelengths of 490 nm (for HS or Cx43) and 350 nm (for DAPI) were used to obtain XY-plane slices. Laser gain and transmission were kept below fluorophore saturation levels. Confocal slice intervals were 0.2 μm for HS and 0.7 μm for Cx43. […]

[2] = test system: heparan sulfate (HS) of RFPEC glycocalyx; test: HS expression (coverage) in RFPEC glycocalyx by immunofluorescence confocal microscopy (Example 1)
Procedure: as §1, §2
Immunostaining. RFPECs have high affinity to most antibodies that are available for performing immunocytochemistry. For heparan sulfate (HS), RFPEC monolayers were treated with 2% paraformaldehyde/1% glutaraldehyde in phosphate buffered saline (PBS) for fixation, treated with 2% goat serum in PBS to block non-specific ligands, and stained for three nights at 4° C. with a 1:100 10E4-epitope HS antibody (Amsbio).
As specified by the manufacturer, the HS antibody reacts with many types of heparan sulfate. The reactivity of the HS antibody is abolished after treatment with Hep III, indicating antibody specificity. […]

[3] = RFPEC, Hep III, then 16 h with or without 59 μg/ml HS and/or 10 μM S1P, mean±SEM
[4] = after Hep III, HS 59 μg/ml, S1P 10 μM

| Compound | Lucifer Yellow dye spread, neighboring cells receiving dye per scratch-loaded cell [1, 3] [cells] | Lucifer Yellow dye transfer, result in words (FIG. 4 legend) [1, 4] | Cx43 distribution along the perimeter of the cells (Cx43 at RFPEC borders; [3]) [%] | Cx43 distribution/expression, result in words (FIG. 3 legend) (Cx43 at RFPEC borders; [4]) | HS expression in GCX, result in words (FIG. 2 legend) ([2]; 25 μIU/ml Hep III, HS 59 μg/ml, S1P 10 μM) | HS coverage of cell surfaces ([2]; RFPEC, Hep III 2 hours, probed 16 hours after, with or without 59 μg/ml exogenous HS and/or 10 μM S1P for the 16 hours, mean±SEM) [%] | effect of actin disruption on cell-to-cell movement of Lucifer Yellow dye ([1]; preliminary studies, data not shown) |
| --- | --- | --- | --- | --- | --- | --- | --- |
| CCCCCCCCCCCCC/C=C/[C@@H](O)[C@@H](N)COP(=O)(O)O [S1P, sphingosine-1-phosphate] | 2.06±0.08 | did not improve cell-to-cell communication | 34.81±5.16 | did not show a significant restoration of Cx43 expression | significantly recovered the expression of HS in GCX, back to baseline conditions | 71.97±5.02 | – |
| C=C1[C@@H](C)[C@H]2[C@H](Cc3ccccc3)NC(=O)[C@]23[C@H](OC(C)=O)/C=C/[C@@](C)(O)C(=O)[C@@H](C)C/C=C/[C@H]3[C@@H]1O [cytochalasin D] | – | – | – | – | – | – | bars cell-to-cell movement of Lucifer Yellow dye |

Source: patent US20200023001A1, “GlycoFix (Structurally And Functionally Repaired Endothelial Glycocalyx)” (Northeastern University, priority 2018, published 2020)
